Assay results published in ChEMBL document CHEMBL1128364 (J Med Chem, 1995).

Columns and labels:
Oxytocin receptor [1] = molecular target: T1, Oxytocin receptor (Rattus norvegicus, UniProt P70536); assay: (§1) Compound was evaluated for the oxytocic activity with out Mg2+.; settings: read-out: pA2 (converted)
T1 sequence (P70536 whole entry): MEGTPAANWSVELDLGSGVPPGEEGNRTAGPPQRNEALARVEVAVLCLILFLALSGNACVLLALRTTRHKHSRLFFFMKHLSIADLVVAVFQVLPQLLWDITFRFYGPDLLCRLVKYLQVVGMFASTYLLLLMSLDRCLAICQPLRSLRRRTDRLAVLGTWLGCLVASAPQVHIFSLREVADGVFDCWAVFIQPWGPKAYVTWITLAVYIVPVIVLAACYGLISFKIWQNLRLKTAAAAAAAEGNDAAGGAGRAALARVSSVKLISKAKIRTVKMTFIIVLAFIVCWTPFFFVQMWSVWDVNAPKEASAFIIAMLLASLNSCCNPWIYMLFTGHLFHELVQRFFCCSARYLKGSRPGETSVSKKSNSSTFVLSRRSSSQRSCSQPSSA

Oxytocin receptor [2] = molecular target: T1, Oxytocin receptor; assay: (§2) Compound was evaluated for the oxytocic activity with 0.5 mM Mg2+.; settings: read-out: pA2 (converted)
[3] = molecular target: T2, Oxytocin receptor (Rattus norvegicus) (UniProt P70536); assay: as §2
T2 sequence (whole entry): T1 sequence (P70536 whole entry)

[4] = molecular target: T2, Oxytocin receptor (Rattus norvegicus); assay: as §1
[5] = molecular target: Vasopressin V2 receptor (Rattus norvegicus) (UniProt Q00788); assay: Antidiuretic activity at V2 receptor.; settings: Urine
Vasopressin V2 receptor = Vasopressin V2 receptor (Rattus norvegicus, UniProt Q00788); assay: Antidiuretic activity at V2 receptor; assay type: tissue-based, Urine; settings: read-out: pA2 (converted)
Oxytocin receptor [6] = molecular target: T1, Oxytocin receptor; assay: In vitro activity was determined for the anti-oxytocic activity with 0.5 mM Mg2+.; settings: read-out: pA2 (converted)
Rattus norvegicus = assay: In vivo activity for the anti-oxytocic activity.; assay type: functional, organism-based; settings: read-out: pA2 (converted)
Vasopressin V1a receptor [7] = molecular target: T3, Vasopressin V1a receptor (Rattus norvegicus, UniProt P30560); assay: Anti-vasopressor activity at V1a receptor; settings: read-out: pA2 (converted)
Oxytocin receptor [8] = molecular target: T1, Oxytocin receptor; assay: In vitro activity for the anti-oxytocic activity with out Mg2+.; settings: read-out: pA2 (converted)
Vasopressin V1a receptor [9] = molecular target: T3, Vasopressin V1a receptor; assay: Compound was evaluated for the anti-vasopressor activity at V1a receptor..; settings: read-out: pA2 (converted)
Oxytocin receptor [10] = molecular target: T1, Oxytocin receptor; assay: In vitro activity for the anti-oxytocic activity with out Mg2+; settings: read-out: pA2 (converted)

T3 sequence (P30560 whole entry): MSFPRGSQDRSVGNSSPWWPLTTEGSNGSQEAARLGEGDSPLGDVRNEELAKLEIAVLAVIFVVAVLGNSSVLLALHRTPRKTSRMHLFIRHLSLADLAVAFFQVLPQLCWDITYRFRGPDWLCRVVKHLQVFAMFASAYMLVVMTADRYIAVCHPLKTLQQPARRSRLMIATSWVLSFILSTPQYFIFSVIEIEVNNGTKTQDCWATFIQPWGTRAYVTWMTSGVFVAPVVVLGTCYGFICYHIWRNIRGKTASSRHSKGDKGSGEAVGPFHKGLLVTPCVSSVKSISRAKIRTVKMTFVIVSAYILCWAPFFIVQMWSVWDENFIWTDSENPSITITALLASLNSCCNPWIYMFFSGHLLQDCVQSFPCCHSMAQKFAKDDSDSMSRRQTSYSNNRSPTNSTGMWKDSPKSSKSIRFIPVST
Vasopressin V2 receptor, sequence (Q00788 whole entry): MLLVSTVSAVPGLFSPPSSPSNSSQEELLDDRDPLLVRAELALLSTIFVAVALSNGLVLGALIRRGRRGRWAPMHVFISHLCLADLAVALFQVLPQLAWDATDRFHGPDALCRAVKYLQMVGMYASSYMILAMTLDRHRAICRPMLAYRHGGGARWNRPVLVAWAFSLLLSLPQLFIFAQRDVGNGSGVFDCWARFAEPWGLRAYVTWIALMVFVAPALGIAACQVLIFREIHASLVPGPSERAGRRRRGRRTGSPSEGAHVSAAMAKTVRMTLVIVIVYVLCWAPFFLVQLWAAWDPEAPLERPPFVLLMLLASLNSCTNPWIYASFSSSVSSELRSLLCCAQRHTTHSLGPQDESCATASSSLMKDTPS
Vasopressin V2 receptor (Rattus norvegicus), sequence (Q00788 whole entry): as above

NC(=O)CC[C@@H]1NC(=O)[C@H](Cc2ccccc2)NC(=O)[C@H](Cc2ccc(O)cc2)NC(=O)[C@@H](N)CSSC[C@H](C(=O)N2CCC[C@H]2C(=O)N[C@@H](CCCN=C(N)N)C(=O)NCC(N)=O)NC(=O)[C@H](CC(N)=O)NC1=O
Kb (Oxytocin receptor [1]): 214 nM | Kb (Oxytocin receptor [2]): 5750 nM

CC[C@H](C)[C@@H]1NC(=O)[C@H](Cc2ccc(O)cc2)NC(=O)[C@@H](N)CSSC[C@@H](C(=O)N2CCC[C@H]2C(=O)N[C@@H](CC(C)C)C(=O)NCC(N)=O)NC(=O)[C@H](CC(N)=O)NC(=O)[C@H](CCC(N)=O)NC1=O
Oxytocic activity [3]: 486 U mg-1 | Oxytocic activity [4]: 520 U mg-1 | Antidiuretic activity [5]: 4 U mg-1

COc1ccc(C[C@@H]2NC(=O)CC3(CCCCC3)SSC[C@H](C(=O)N3CCC[C@H]3C(=O)N[C@@H](CCCN=C(N)N)C(=O)NCC(N)=O)NC(=O)[C@H](CC(N)=O)NC(=O)[C@H](CCC(N)=O)NC(=O)[C@H](Cc3ccccc3)NC2=O)cc1
Kb (Vasopressin V2 receptor): 2880 nM | Kb (Oxytocin receptor [6]): 25.1 nM | Kb (Rattus norvegicus): 251 nM | Kb (Vasopressin V1a receptor [7]): 13.5 nM | Kb (Oxytocin receptor [8]): 13.5 nM

COc1ccc(C[C@@H]2NC(=O)CC3(CCCCC3)SSC[C@@H](C(=O)N3CCC[C@H]3C(=O)N[C@@H](CCCN=C(N)N)C(=O)NCC(N)=O)NC(=O)[C@H](CC(N)=O)NC(=O)[C@H](CCC(N)=O)NC(=O)[C@H](Cc3ccccc3)NC2=O)cc1
Kb (Oxytocin receptor [6]): 57.5 nM | Kb (Vasopressin V1a receptor [9]): 2.4 nM | Kb (Oxytocin receptor [10]): 7.41 nM
